Source: patent US20020123648A1, “Aqueous stable lysine solution” (AJINOMOTO CO., INC., priority 1999, published 2002)

What was measured:
[1] = Solubility of lysine: suspension stirred 1 week at constant temperature, lysine analysed in supernatant; format: physicochemical; details: 20° C.; chloride ions at a molar ratio of 27% or less to the lysine (hydrochloric acid)
Protocol: 70% lysine base solution obtained under (1) above, 35% hydrochloric acid and deionized water were used in the amounts shown in Table 1 below, respectively, to prepare 7 kinds of solutions. In these solutions, the lysine base crystals obtained under (2) above and the lysine hydrochloride.2H2O crystals obtained under (3) above were suspended respectively in the amounts shown in the same table, and then stirred for 1 week during which the temperature was kept at 20° C.
The crystals were removed from these suspensions, and the concentration of the chloride ions in each of the remaining solutions was analyzed by an ion chromatographic analyzer “Yokokawa IC7000 model”, and the concentration of lysine therein was analyzed by an amino acid analyzer “Hitachi L-8500 model”. […]
The crystals were removed from these suspensions, and the concentration of the chloride ions in each of the resulting solutions (supernatants) was analyzed by the ion chromatographic analyzer “Yokokawa IC7000 model”, and the concentration of the lysine therein was analyzed by the amino acid analyzer “Hitachi L-8500 model”. […]

[2] = storage at 50° C. for 6 weeks; cited from earlier work
[3] = used in the same molar amount; cited from earlier work

## NCCCC[C@H](N)C(=O)O [lysine]
[1]
  solubility of lysine compared with the case where the chloride ions are not contained (FIG. 1): increased

## NCCCC[C@H](N)C(=O)O [crystalline L-lysine, L-lysine]
[2]
  coloration after storage: evidently colored
  formation of by-products after storage: confirmed

## Cl.NCCCC[C@H](N)C(=O)O [L-lysine monohydrochloride]
[3]
  action in a feeding experiment: same action
